Assay results: patent US20200261391A1, “METHODS OF REDUCING THE RISK OF A CARDIOVASCULAR EVENT IN A STATIN-TREATED SUBJECT BY INCREASING SERUM AND PLASMA EPA AND DPA LEVELS” (Amarin Pharmaceuticals Ireland Limited, priority 2019, published 2020)

Test system: patients with elevated triglyceride levels on statin therapy
Assay: REDUCE-IT endpoints by EPA/AA ratio tertile in the icosapent ethyl group compared to placebo
Type: in vivo, human
Conditions: EPA/AA ≤0.373068; on-treatment average of year 1, year 2, last visit

CC/C=C\C/C=C\C/C=C\C/C=C\C/C=C\CCCC(=O)OCC [icosapent ethyl, eicosapentaenoic acid ethyl ester]
HR (95% CI), Primary Endpoint, Lowest EPA/AA ratio tertile vs Placebo: 0.83 (0.71, 0.97)
